From US20040087571A1, “Methods of using CCR1 antagonists as immunomodulatory agents” (Pfizer Inc, priority 2002, published 2004) come the findings set out here.

Usually melting point stands for the temperature, or range, at which the solid turns liquid. The molecule `CC(C)(O)CC[C@H](C[C@H](O)[C@H](Cc1ccc(F)c(F)c1)NC(=O)c1cnc2ccccc2n1)C(=O)NO` [Example 322, Quinoxaline-2-carboxylic acid [1(S)-(3,4-difluoro-benzyl)-2(S),7-dihydroxy-4(R)-hydroxycarbamoyl-7-methyl-octyl]-amide] displayed a melting point of 150 to 153 °C.

On to `CC(C)CC[C@H](C[C@H](O)[C@H](Cc1cscn1)NC(=O)c1cnc2ccccc2n1)C(N)=O` [Example 178, Quinoxaline-2-carboxylic acid (4(R)-carbamoyl-2(S)-hydroxy-7-methyl-1(S)-thiazol-4-ylmethyl-octyl)-amide], for which the melting point fell in the range of 195 to 196 °C.

In turn, `CC(C)(O)CC[C@H](C[C@H](O)[C@H](Cc1ccccc1F)NC(=O)c1cnc2ccccc2n1)C(N)=O` [Example 321, Quinoxaline-2-carboxylic acid [4(R)-carbamoyl-1(S)-(2-fluoro-benzyl)-2(S),7-dihydroxy-7-methyl-octyl]-amide] registered a melting point of 147 to 148 °C.

In turn, `CC(C)C[C@H](C[C@H](O)[C@H](CC1CCCCC1)NC(=O)c1cnc2ccccc2c1)C(N)=O` [Example 20, Quinoline-3-carboxylic acid (4(R)-carbamoyl-1(S)-cyclohexylmethyl-2(S)-hydroxy-6-methyl-heptyl)-amide] gave a melting point of 186 to 188 °C.

In turn, `COc1cccc(CNC(=O)[C@H](CCC(C)(C)F)C[C@H](O)[C@H](Cc2ccccc2)NC(=O)c2cnc3ccccc3n2)c1OC` [Example 242, Quinoxaline-2-carboxylic acid [1(S)-benzyl-4(R)-(2,3-dimethoxy-benzylcarbamoyl)-7-fluoro-2(S)-hydroxy-7-methyl-octyl]-amide] had a melting point of 99 to 101 °C.

On to `CC(C)(F)CC[C@H](C[C@H](O)[C@H](Cc1ccccc1)NC(=O)c1cnc2ccccc2n1)C(=O)NCc1ccccn1` [Example 211, Quinoxaline-2-carboxylic acid {1(S)-benzyl-7-fluoro-2(S)-hydroxy-7-methyl-4(R)-[(pyridin-2-ylmethyl)-carbamoyl]-octyl}-amide], for which the melting point was in the range of 138 to 140 °C.

On to `NC(=O)[C@@H](C[C@H](O)[C@H](Cc1ccccc1)NC(=O)c1cnc2ccccc2c1)C1CCCCC1` [Example 261, Quinoline-3-carboxylic acid (1(S)-benzyl-4(S)-carbamoyl-4-cyclohexyl-2(S)-hydroxy-butyl)-amide], for which the melting point is 231 °C.

In the case of `CC1(C)CCC(O)([C@H](C[C@H](O)[C@H](Cc2ccccc2)NC(=O)c2cnc3ccccc3n2)C(=O)NO)CC1` [Example 305, Quinoxaline-2-carboxylic acid [1(S)-benzyl-2(S)-hydroxy-4(S)-hydroxycarbamoyl-4-(1-hydroxy-4,4-dimethyl-cyclohexyl)-butyl]-amide], the melting point was 118 to 123 °C.

With `NC(=O)[C@H](Cc1ccccc1F)C[C@H](O)[C@H](Cc1ccccc1)NC(=O)c1cnc2ccccc2n1` [Example 280, Quinoxaline-2-carboxylic acid [1(S)-benzyl-4(R)-carbamoyl-5-(2-fluoro-phenyl)-2(S)-hydroxy-pentyl]-amide], the melting point was 171 to 173 °C.

Take `CC1(C)CCC(O)([C@H](C[C@H](O)[C@H](Cc2ccccc2)NC(=O)c2cnc3ccccc3n2)C(N)=O)CC1` [Example 304, Quinoxaline-2-carboxylic acid [1(S)-benzyl-4(S)-carbamoyl-2(S)-hydroxy-4-(1-hydroxy-4,4-dimethyl-cyclohexyl)-butyl]-amide]: the melting point was 210 to 211 °C.

On to `CC(C)(F)CC[C@H](C[C@H](O)[C@@H](NC(=O)c1cnc2ccccc2n1)c1ccccc1)C(N)=O` [Example 266, Quinoxaline-2-carboxylic acid (4(R)-carbamoyl-7-fluoro-2(S)-hydroxy-7-methyl-1(S)-phenyl-octyl)-amide], for which the melting point lay in the range of 159 to 160.5 °C.

The molecule `CC(C)(F)CC[C@H](C[C@H](O)[C@H](Cc1ccc(Cl)c(Cl)c1)NC(=O)c1cnc2c(F)c(F)ccc2c1)C(N)=O` [Example 156, 7,8-Difluoro-quinoline-3-carboxylic acid [4(R)-carbamoyl-1(S)-(3,4-dichloro-benzyl)-7-fluoro-2(S)-hydroxy-7-methyl-octyl]-amide] showed a melting point of 187 to 189 °C.

Regarding `NC(=O)C1(C[C@H](O)[C@H](Cc2ccccc2)NC(=O)c2cnc3ccccc3n2)Cc2ccccc2C1` [Example 164, Quinoxaline-2-carboxylic acid [1(S)-benzyl-3-(2-carbamoyl-indan-2-yl)-2(S)-hydroxy-propyl]-amide], the melting point lay in the range of 90 to 100 °C.

As for `CC1CC(C)CC(O)([C@H](C[C@H](O)[C@H](Cc2ccccc2)NC(=O)c2cnc3ccccc3n2)C(N)=O)C1` (stereo partly drawn) [Example 288, Quinoxaline-2-carboxylic acid [1(S)-benzyl-4(S)-carbamoyl-2(S)-hydroxy-4-(1-hydroxy-3,5-dimethyl-cyclohexyl)-butyl]-amide], the melting point was 234 to 236 °C.

In turn, `NC(=O)[C@@H](C[C@H](O)[C@H](Cc1ccccc1)NC(=O)c1cnc2ccccc2n1)C1CCCCC1` [Example 168, Quinoxaline-2-carboxylic acid (1(S)-benzyl-4-carbamoyl-4(S)-cyclohexyl-2(S)-hydroxy-butyl)-amide] came in with a melting point of 222 to 223 °C.

`CNC(=O)[C@H](CC(C)C)C[C@H](O)[C@H](Cc1ccc(O)cc1)NC(=O)c1cnc2ccccc2n1` [Example 65, Quinoxaline-2-carboxylic acid [2(S)-hydroxy-1(S)-(4-hydroxy-benzyl)-6-methyl-4(R)-methylcarbamoyl-heptyl]-amide] gave a melting point of 170 to 172 °C.

Molecule `CC(C)(F)CC[C@H](C[C@H](O)[C@H](Cc1ccccc1)NC(=O)c1cnc2ccccc2n1)C(=O)NCc1cccs1` [Example 213, Quinoxaline-2-carboxylic acid {1(S)-benzyl-7-fluoro-2(S)-hydroxy-7-methyl-4(R)-[(thiophen-2-ylmethyl)-carbamoyl]-octyl}-amide] displayed a melting point of 174 to 175 °C.

Take `O=C(N[C@@H](Cc1ccccc1)[C@@H](O)C[C@H](C(=O)NO)C1(O)C2CC3CC(C2)CC1C3)c1cnc2ccccc2n1` (stereo partly drawn) [Example 297, Quinoxaline-2-carboxylic acid [1(S)-benzyl-2(S)-hydroxy-4(S)-(2-hydroxy-adamantan-2-yl)-4-hydroxycarbamoyl-butyl]-amide]: the melting point was in the range of 133 to 134 °C.

Molecule `CC(C)(F)CC[C@H](C[C@H](O)[C@H](Cc1ccccc1)NC(=O)c1cnc2ccccc2n1)C(=O)NCCc1c[nH]c2ccccc12` [Example 230, Quinoxaline-2-carboxylic acid {1(S)-benzyl-7-fluoro-2(S)-hydroxy-4(R)-[2-(1H-indol-3-yl)-ethylcarbamoyl]-7-methyl-octyl}-amide] returned a melting point of 107 to 108 °C.

`CC(C)(F)CC[C@H](C[C@H](O)[C@H](Cc1ccccc1)NC(=O)c1cnc2ccccc2n1)C(=O)NCCc1ccc(O)cc1` [Example 212, Quinoxaline-2-carboxylic acid {1(S)-benzyl-7-fluoro-2(S)-hydroxy-4(R)-[2-(4-hydroxy-phenyl)-ethylcarbamoyl]-7-methyl-octyl}-amide]: the melting point is 138 to 140 °C.

On to `NC(=O)[C@@H](C[C@H](O)[C@H](Cc1ccccc1)NC(=O)c1cnc2ccccc2n1)C1(O)CCCCC1` [Example 260, Quinoxaline-2-carboxylic acid [1(S)-benzyl-4(S)-carbamoyl-2(S)-hydroxy-4-(1-hydroxy-cyclohexyl)-butyl]-amide], for which the melting point is 210 to 211 °C.

Consider `CC(C)(F)CC[C@H](C[C@H](O)[C@H](Cc1ccccc1)NC(=O)c1cnc2ccccc2n1)C(=O)N1CCC[C@H]1CO` [Example 239, Quinoxaline-2-carboxylic acid [1(S)-benzyl-7-fluoro-2(S)-hydroxy-4(R)-(2(S)-hydroxymethyl-pyrrolidine-1-carbonyl)-7-methyl-octyl]-amide], for which the melting point was in the range of 217 to 219 °C.

As for `NC(=O)[C@@H](C[C@H](O)[C@H](Cc1ccccc1)NC(=O)c1cnc2ccccc2n1)C1(O)CCCCC1` [Example 243, Quinoxaline-2-carboxylic acid [1(S)-benzyl-4(S)-carbamoyl-2(S)-hydroxy-4-(1-hydroxy-cyclohexyl)-butyl]-amide], the melting point is 187 to 189 °C.

The molecule `CC(C)(O)CC[C@H](C[C@H](O)[C@H](Cc1cccc2ccccc12)NC(=O)c1cnc2ccccc2n1)C(N)=O` [Example 324, Quinoxaline-2-carboxylic acid (4(R)-carbamoyl-2(S),7-dihydroxy-7-methyl-1(S)-naphthalen-1-ylmethyl-octyl)-amide] displayed a melting point of 155 to 158 °C.

In the case of `CC(C)CCNC(=O)[C@H](CC(C)C)C[C@H](O)[C@H](Cc1ccccc1)NC(=O)c1cnc2ccccc2c1` [Example 48, Quinoline-3-carboxylic acid [1(S)-benzyl-2(S)-hydroxy-6-methyl-4(R)-(3-methyl-butylcarbamoyl)-heptyl]-amide], the melting point was in the range of 153 to 154 °C.

As for `NC(=O)[C@H](Cc1ccc(F)cc1)C[C@H](O)[C@H](Cc1ccccc1)NC(=O)c1cnc2ccccc2n1` [Example 194, Quinoxaline-2-carboxylic acid [1(S)-benzyl-4(R)-carbamoyl-5-(4-fluoro-phenyl)-2(S)-hydroxy-pentyl]-amide], the melting point is 164 to 166 °C.

Turning to `NC(=O)[C@H](Cc1ccccc1)C[C@H](O)[C@H](Cc1ccccc1)NC(=O)c1cnc2c(F)c(F)ccc2c1` [Example 273, 7,8-Difluoro-quinoline-3-carboxylic acid (1(S)-benzyl-4(R)-carbamoyl-2(S)-hydroxy-5-phenyl-pentyl)-amide], the melting point lay within 233 to 235 °C.

Consider `NC(=O)[C@@H](C[C@H](O)[C@H](Cc1ccccc1)NC(=O)c1cnc2ccccc2n1)C1(O)CCC(F)(F)CC1` [Example 306, Quinoxaline-2-carboxylic acid [1(S)-benzyl-4(S)-carbamoyl-4-(4,4-difluoro-1-hydroxy-cyclohexyl)-2(S)-hydroxy-butyl]-amide], for which the melting point lay in the range of 207.5 to 208.5 °C.

`CNC(=O)[C@H](CC(C)C)C[C@H](O)[C@H](Cc1ccc(Cl)cc1)NC(=O)c1cnc2ccccc2c1` [Example 67, Quinoline-3-carboxylic acid [1(S)-(4-chloro-benzyl)-2(S)-hydroxy-6-methyl-4(R)-methylcarbamoyl-heptyl]-amide]: the melting point was 212.5 to 213.5 °C.
